Measurements as given in patent US20140328933A1, “NOVEL FORMULATIONS AND METHODS” (priority 2010, published 2014).
Where no end group is shown, it is not given here.

Test system: Angiogenesis in the CAM Model
Assay: Chorioallantoic Membrane Angiogenesis (CAM) Model, branch points formation
Assay type: in vivo
Excerpt: VIP in Chorioallantoic Membrane Angiogenesis (CAM) Model
FIG. 15 depicts the results of testing regarding Nanoparticle encapsulates.

Q: Which “Total # of branches [VIP (1 ng/CAM) - PBS(average)], Mean” value (VIP 1 ng/CAM, PBS average subtracted) does the source give for “Vasoactive intestinal peptide (HSDAVFTDNYTRLRKQMAVKKYLNSILN-NH2) [VIP, peptide hormone containing 28 amino acid residues]” here?
A: The value was 34.8.

Q: What about the “Total # of branches [VIP (10 ng/CAM) - PBS(average)], Mean” value (VIP 10 ng/CAM, PBS average subtracted) of the same substance?
A: The value was 53.6.

Q: And the “number of branches, Mean” value (VIP 0.1 ug/ml, 1 ng/CAM)?
A: Its value is 84.8.

Q: And the “Total # of branches [VIP (100 ng/CAM) - PBS(average)], Mean” value (VIP 100 ng/CAM, PBS average subtracted)?
A: Its value is 71.7.

Q: What about the “number of branches, Mean” value (VIP 1 ug/ml, 10 ng/CAM) of the same substance?
A: Its value is 103.6.

Q: What about the “number of branches, Mean” value (VIP 10 ug/ml, 100 ng/CAM) of the same substance?
A: Its value is 121.7.
